Data from ChEMBL document CHEMBL6109064, “Functional and structural polypharmacology of indazole-based privileged ligands to tackle the undruggability of membrane transporters” (Eur J Med Chem, 2025).

Columns and labels:
[1] = target: ATP-dependent translocase ABCB1 (Homo sapiens, UniProt P08183); assay: Inhibition of ABCB1 in human A2780 ADR cells assessed as increase in daunorubicin fluorescence intensity using daunorubicin as tracer preincubated for 30 mins followed by daunorubicin addition and measured for 180 mins by flow cytometry; type: cell-based
ATP-dependent translocase ABCB1, sequence (P08183 whole entry): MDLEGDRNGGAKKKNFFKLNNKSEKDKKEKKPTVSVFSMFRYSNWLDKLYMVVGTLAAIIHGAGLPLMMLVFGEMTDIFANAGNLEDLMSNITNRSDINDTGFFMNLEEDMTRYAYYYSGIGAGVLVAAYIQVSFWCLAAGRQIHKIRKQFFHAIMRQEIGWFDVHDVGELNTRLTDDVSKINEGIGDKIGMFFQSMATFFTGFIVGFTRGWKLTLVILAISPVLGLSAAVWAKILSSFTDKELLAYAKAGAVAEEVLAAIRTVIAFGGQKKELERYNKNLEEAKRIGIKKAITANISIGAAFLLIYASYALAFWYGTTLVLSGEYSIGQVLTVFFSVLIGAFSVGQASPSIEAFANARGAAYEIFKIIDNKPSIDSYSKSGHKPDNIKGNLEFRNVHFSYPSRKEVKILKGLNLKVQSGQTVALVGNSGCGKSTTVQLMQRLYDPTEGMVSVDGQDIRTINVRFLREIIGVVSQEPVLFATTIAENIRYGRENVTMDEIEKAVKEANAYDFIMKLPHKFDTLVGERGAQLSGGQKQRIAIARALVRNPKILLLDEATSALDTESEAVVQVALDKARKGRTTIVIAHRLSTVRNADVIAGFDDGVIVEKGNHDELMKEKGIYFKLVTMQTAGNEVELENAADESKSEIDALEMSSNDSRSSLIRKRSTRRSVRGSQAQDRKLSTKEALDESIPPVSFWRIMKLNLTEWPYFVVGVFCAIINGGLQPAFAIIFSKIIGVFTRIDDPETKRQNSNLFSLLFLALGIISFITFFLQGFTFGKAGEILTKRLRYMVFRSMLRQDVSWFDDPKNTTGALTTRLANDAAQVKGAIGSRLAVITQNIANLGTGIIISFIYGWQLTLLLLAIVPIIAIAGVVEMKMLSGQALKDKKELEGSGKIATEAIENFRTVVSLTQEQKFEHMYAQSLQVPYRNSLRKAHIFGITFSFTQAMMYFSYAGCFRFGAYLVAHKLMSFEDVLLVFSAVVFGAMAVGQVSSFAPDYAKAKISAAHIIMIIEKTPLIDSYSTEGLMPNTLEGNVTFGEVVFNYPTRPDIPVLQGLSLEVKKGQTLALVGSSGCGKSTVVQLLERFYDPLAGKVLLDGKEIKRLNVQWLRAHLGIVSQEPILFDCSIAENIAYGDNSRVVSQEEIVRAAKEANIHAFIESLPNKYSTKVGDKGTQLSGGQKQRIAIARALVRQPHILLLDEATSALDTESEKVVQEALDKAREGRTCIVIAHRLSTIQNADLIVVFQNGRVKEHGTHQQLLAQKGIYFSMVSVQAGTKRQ

[2] = target: T1, Solute carrier family 22 member 2 (Homo sapiens, UniProt O15244); assay: Inhibition of OCT2 (unknown origin) expressed in HEK293 cells assessed as inhibition of ASP+ uptake incubated for 5 mins by fluorescence based analysis; type: cell-based
T1 sequence (O15244 whole entry): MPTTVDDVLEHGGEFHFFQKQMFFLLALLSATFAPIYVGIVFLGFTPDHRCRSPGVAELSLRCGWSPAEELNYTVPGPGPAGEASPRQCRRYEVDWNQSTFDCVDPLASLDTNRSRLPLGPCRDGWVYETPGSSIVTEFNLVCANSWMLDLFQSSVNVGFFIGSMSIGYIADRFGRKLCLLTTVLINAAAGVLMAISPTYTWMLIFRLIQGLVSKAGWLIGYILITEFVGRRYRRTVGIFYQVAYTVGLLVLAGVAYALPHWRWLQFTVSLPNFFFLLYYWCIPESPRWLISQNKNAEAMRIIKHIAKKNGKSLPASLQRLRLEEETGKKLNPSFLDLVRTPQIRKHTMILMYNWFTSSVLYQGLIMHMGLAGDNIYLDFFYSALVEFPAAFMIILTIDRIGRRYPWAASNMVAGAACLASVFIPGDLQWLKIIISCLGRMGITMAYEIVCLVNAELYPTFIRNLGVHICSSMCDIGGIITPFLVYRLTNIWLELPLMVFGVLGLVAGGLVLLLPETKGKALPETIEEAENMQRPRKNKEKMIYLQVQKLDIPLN

[3] = Inhibition of ABCA1 (unknown origin) expressed in mouse J774.A1 cells assessed as inhibition of 25-NBD-cholesterol fluorescence intensity preincubated for 24 hrs followed by 25-NBD-cholesterol addition and measured after 48 hrs by flow cytometry; type: cell-based, Homo sapiens
[4] = target: T2, ATP-binding cassette sub-family C member 10 (Homo sapiens, UniProt Q5T3U5); assay: Reversal of ABCC10 (unknown origin) -mediated multidrug resistance transfected in human HEK293 MRP7 cells assessed as increase in paclitaxel-mediated cytotoxicity incubated for 68 hrs in presence of paclitaxel by MTT assay; type: cell-based
T2 sequence (Q5T3U5 whole entry): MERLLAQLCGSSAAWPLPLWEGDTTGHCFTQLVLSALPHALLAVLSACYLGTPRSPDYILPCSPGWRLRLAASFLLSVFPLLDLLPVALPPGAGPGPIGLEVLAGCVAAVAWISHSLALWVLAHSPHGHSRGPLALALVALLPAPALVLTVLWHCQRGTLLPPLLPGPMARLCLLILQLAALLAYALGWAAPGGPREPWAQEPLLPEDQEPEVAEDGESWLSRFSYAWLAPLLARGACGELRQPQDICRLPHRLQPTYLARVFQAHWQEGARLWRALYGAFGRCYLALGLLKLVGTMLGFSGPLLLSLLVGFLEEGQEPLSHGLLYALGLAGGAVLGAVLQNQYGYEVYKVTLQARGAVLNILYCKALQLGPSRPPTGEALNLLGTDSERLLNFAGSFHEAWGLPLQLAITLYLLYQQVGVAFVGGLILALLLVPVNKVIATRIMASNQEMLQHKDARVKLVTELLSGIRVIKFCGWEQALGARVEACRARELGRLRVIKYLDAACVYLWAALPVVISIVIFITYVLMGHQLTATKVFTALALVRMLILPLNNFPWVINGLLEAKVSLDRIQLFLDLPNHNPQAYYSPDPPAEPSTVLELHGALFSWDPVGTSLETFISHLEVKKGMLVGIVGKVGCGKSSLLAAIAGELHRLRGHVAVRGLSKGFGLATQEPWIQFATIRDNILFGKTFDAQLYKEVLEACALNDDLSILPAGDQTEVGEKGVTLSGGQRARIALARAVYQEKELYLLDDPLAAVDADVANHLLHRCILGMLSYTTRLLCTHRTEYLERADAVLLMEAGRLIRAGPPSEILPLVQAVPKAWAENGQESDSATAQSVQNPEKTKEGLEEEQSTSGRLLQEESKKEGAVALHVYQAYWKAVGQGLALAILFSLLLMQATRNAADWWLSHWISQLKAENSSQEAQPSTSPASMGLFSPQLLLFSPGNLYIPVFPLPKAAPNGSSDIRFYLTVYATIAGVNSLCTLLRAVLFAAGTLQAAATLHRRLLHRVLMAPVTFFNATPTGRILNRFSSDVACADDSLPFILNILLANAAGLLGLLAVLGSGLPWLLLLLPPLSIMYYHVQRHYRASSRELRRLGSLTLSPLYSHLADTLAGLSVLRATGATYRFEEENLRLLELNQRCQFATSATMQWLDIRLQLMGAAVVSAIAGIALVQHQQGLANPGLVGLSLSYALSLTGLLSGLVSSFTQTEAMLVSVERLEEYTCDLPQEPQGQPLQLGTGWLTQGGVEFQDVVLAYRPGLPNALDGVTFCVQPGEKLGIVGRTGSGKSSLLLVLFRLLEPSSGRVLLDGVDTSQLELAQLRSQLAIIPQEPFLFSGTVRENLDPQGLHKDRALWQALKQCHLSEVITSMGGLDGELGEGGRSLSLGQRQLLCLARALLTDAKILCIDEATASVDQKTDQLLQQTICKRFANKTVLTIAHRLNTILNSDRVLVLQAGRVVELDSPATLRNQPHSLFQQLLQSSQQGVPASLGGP

IC50 [1] [µM] | IC50 [2] [µM] | IC50 [3] | IC50 ([3]; read-out: IC50) [µM] | Compound | EC50 [4]
2.18 | 11.8 | Not_active |  | COc1cccc(NC(=O)c2nn(CC(=O)Nc3ccccc3OC)c3ccccc23)c1 | Not_active
1.74 | 50.3 |  | 13 | O=C(Cn1nc(C(=O)Nc2ccccn2)c2ccccc21)Nc1cc(Cl)ccc1Cl | Not_active
8 | 60.1 |  | 4.7 | O=C(Cn1nc(C(=O)Nc2cccnc2)c2ccccc21)Nc1ccc(Cl)cc1 | 
1.43 | 20.8 | Not_active |  | COc1cccc(NC(=O)Cn2nc(C(=O)Nc3cccc(OC)c3)c3ccccc32)c1 | Not_active
